IC50 and EC50 data for one compound are collected here from patent US20240307415A1, “STEROID COMPOUND, AND PHARMACEUTICAL COMPOSITION THEREOF AND USE THEREOF” (JIANGSU SIMCERE PHARMACEUTICAL CO., LTD., priority 2021, published 2024).

One may read the IC50 as the midpoint of a concentration-inhibition curve. A lower IC50 goes with greater potency. One may read the EC50 as the concentration giving half of the maximal effect.

The target of one data set is CYP2C9 (Homo sapiens (Human), UniProt P11712). Description: Inhibition of CYP2C9 enzymatic activity in human liver microsomes. In kind it is in vitro ADME. The conditions noted are these: human liver microsome, substrate diclofenac, 5 min. On the procedure: (§1) The inhibition of CYP2C9 and CYP2D6 activity by the compound of the present invention was determined using the following method.
Sequence of CYP2C9 (P11712 whole entry): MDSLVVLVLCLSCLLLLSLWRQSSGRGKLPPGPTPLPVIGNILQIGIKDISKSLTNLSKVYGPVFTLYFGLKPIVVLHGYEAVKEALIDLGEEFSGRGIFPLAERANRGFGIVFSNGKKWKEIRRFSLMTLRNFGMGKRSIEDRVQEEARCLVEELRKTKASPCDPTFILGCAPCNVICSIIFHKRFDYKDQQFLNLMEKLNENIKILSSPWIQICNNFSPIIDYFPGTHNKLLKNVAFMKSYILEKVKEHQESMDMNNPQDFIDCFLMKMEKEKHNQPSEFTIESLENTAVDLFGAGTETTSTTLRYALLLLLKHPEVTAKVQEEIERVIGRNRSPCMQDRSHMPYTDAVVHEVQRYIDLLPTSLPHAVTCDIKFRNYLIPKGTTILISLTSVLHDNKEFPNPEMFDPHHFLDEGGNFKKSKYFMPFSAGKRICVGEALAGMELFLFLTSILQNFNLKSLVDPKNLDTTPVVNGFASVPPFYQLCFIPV
(§2) • 1. Human liver microsome (Corning 452117) • 2. NADPH (Solarbio 705Y021) • 3. Positive substrates diclofenac (Sigma SLBV3438) and dextromethorphan (TRC 3-EDO-175-1) • 4. Positive inhibitors sulfaphenazole (D. Ehrenstorfer GmbH 109012) and quinidine (TCI WEODL-RE) • 5. AB Sciex Triple Quad 5500 liquid chromatography-mass spectrometry system
(§3) • 1. Preparation of 100 mM phosphate-buffered saline (PBS): 7.098 g Na2HPO4 was weighed. 500 mL pure water was added. The mixture was dissolved by sonication to give solution A. 3.400 g KH2PO4 was weighed. 250 mL pure water was added. The mixture was dissolved by sonication to give solution B. The solution A was placed in a stirrer, and the solution B was slowly added until the pH reached 7.4, so that the 100 mM PBS buffer was prepared. • 2. A 10 mM NADPH solution was prepared with a 100 mM PBS buffer. A 10 mM stock solution of the compound of the present invention was diluted with DMSO to give a compound working solution at a concentration of 200×(6000, 2000, 600, 200, 60, 20, and 0 μM). […]
(§4) The reduction of metabolite production in the treatment groups versus the control group was compared by the peak area ratios of the sample to the internal standard, and the IC50 value was calculated using Excel XLfit 5.3.1.3.
On the technique in general: Liver microsomes are vesicles of endoplasmic reticulum, rich in cytochrome P450 enzymes.

For data set [1], the target named is Glucocorticoid Receptor GR (Homo sapiens (Human), UniProt P04150). Description: Binding activity to glucocorticoid receptor GR (Polarscreen fluorescence polarization kit). The conditions noted are these: GR full length, 2 h. On the procedure: The binding activity of the compound to GR was determined using the Polarscreen Glucocorticoid Receptor Assay Kit, Red (brand: Thermo, Cat. No: A15898). […] The highest concentration was 100 μM, 8 concentrations in total. […] With the log value of the final concentration of the compound as the X axis and the mP value as the Y axis, data was input into the processing software Graphpad Prism 9, and the EC50 value was calculated by four-parameter fitting
Sequence of Glucocorticoid Receptor GR (P04150 whole entry): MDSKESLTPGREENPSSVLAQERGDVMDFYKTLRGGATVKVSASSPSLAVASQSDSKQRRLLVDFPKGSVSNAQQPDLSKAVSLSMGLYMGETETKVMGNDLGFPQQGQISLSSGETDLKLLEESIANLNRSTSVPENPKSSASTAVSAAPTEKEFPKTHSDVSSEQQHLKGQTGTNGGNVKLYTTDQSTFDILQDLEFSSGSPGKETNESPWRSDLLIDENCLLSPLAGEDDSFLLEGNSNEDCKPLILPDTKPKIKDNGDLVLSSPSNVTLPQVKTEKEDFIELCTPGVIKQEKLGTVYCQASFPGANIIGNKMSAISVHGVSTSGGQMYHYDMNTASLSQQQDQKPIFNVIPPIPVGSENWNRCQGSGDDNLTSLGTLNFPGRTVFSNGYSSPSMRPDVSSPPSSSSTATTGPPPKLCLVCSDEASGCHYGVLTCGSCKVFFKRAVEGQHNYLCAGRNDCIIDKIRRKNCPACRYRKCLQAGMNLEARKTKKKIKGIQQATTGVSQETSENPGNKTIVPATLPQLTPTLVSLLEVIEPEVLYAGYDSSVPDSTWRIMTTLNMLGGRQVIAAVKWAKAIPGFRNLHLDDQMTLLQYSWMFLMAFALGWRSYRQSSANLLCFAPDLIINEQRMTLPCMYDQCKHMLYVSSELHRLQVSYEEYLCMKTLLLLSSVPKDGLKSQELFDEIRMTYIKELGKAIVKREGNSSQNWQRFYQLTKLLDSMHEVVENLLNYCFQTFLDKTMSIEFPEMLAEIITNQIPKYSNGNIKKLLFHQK
A general note: In fluorescence polarisation assays a small probe gives low polarisation when free and higher when bound to something large.

Another data set has as its target CYP2D6 (Homo sapiens (Human), UniProt P10635). In words: Inhibition of CYP2D6 enzymatic activity in human liver microsomes. The conditions noted are these: human liver microsome, substrate dextromethorphan, 20 min. The format is in vitro ADME. On the procedure:
as §1, §2, §3, §4

The test system of a further data set is K562-GRE reporter gene. In words: K562-GRE reporter gene activity. The format is cell-based. The conditions noted are these: 24 h, read-out: K562-GRE Reporter EC50. The procedure: To generate the parental K562-GRE cell line, K562 cells were seeded at 5×10^5 cells/well onto a 6-well plate (brand: Costar, Cat. No: 3516) containing 2 mL of complete medium (RPM1640, 10% FBS, penicillin-streptomycin) and cultured at 37° C. with 5% CO2 for 24 h. The next day, 3 μg of pNL2.2[NLucP/MMTV/Hygro-NANO] (Promega) and 3 μL of PLUS reagent (brand: Invitrogen, Cat. No: 11514-015) were diluted in 150 μL of Opti-MEM (brand: Gibco, Cat. No: 11058021) and incubated at room temperature for 5 min. The pNL2.2[NLucP/MMTV/Hygro-NANO] vector contains MMTV LTR (mouse mammary tumor virus long terminal repeat), which drives transcription of the luciferase reporter gene NanoLuc in response to activation of several nuclear receptors (e.g. glucocorticoid receptor and androgen receptor). After incubation, the diluted DNA solution was mixed with Lipofectamine LTX solution (brand: Invitrogen, Cat. No: 15338-100) (6 μL of Lipofectamine LTX+144 μL of Opti-MEM) in a 1:1 ratio, pre-incubated, and incubated at room temperature for 15 min to form a DNA-Lipofectamine LTX complex. After incubation, 300 μL of the DNA-Lipofectamine complex was added directly to the cell wells. The K562 cells were transfected at 37° C. with 5% CO2 for 24 h. After transfection, the cells were washed with 3 mL of PBS and selectively grown for two weeks with complete growth medium containing 125 μg/mL hygromycin B (brand: Invitrogen, Cat. No: 10687010). “K562-GRE (pNL2.2[NLucP/MMTV/Hygro-NANO])” cells were generated.
After mixing, the cells were cultured in an incubator at 37° C. for 24 h. After 24 h of incubation, an equal volume of 100 μL of Nano-Glo luciferase assay system (brand: Promega, Cat. No: N1120) was added to the cells, the mixture was reacted in a shaker at […] for 10 min, and the chemiluminescence values were detected using the PHERAstar instrument. The antibody binding curves were plotted using the logarithmic value of the antibody concentration as the abscissa and the corresponding chemiluminescence reading as the ordinate, and the EC50 value was calculated by four-parameter fitting (GraphPad Prism9).
A general note: A reporter such as luciferase makes a cellular process visible.

Sequence of CYP2D6 (P10635 whole entry): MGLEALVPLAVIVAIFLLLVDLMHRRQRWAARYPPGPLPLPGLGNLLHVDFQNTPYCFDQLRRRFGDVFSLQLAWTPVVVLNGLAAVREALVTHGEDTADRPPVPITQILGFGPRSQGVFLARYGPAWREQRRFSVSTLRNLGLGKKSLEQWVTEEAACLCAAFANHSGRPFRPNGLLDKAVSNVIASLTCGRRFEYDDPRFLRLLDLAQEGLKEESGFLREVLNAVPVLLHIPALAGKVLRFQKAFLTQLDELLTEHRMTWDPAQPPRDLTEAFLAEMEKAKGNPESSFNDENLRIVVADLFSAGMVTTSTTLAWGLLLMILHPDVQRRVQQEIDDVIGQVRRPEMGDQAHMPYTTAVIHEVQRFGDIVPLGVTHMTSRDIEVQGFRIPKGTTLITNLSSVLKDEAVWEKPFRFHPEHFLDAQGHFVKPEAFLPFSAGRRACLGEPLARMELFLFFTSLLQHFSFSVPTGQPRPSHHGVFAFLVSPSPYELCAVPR

In the case of `C[C@]12C=CC(=O)C=C1CC[C@@H]1[C@@H]2[C@@H](O)C[C@@]2(C)[C@H]1C[C@H]1O[C@@H](c3ccc(Cc4cc(N)c5c(c4)CCO5)cc3)O[C@]12C(=O)CO` [Compound 009, (6aR,6bS,7S,8aS,8bS,10R,11aR,12aS,12bS)-10-(4-((7-amino-2,3-dihydrobenzofuran-5-yl)methyl)phenyl)-7-hydroxy-8b-(2-hydroxyacetyl)-6a,8a-dimethyl-6a,6b,7,8,8a,8b,11a,12,12a,12b-decahydro-1H-naphtho[2′,1′:4,5]indeno[1,2-d][1,3]dioxolan-4(2H)-one], the figures for the IC50 at CYP2C9 and at CYP2D6 were 7200 nM and above 50000 nM, respectively. The EC50 in data set [1] turned out to be 20.2 nM; in the data set on K562-GRE reporter gene, 5.76 nM.
